Reference: ChEMBL document CHEMBL3046547, “Pyrethroid resistance in the tomato red spider mite, Tetranychus evansi, is associated with mutation of the para-type sodium channel” (2011)
Values after ≈ are worked out from the molar mass of the structure shown.

Assays:
Format in all cases: functional
Tetranychus evansi [1] = assay: Insecticidal activity against Tetranychus evansi ST JEA in clean French bean leaf assessed as mortality at 26 degC and 16 hr day length measured after 48 hr by microimmersion protocol
Tetranychus evansi [2] = assay: Insecticidal activity against Tetranychus evansi R2 in clean French bean leaf assessed as mortality at 26 degC and 16 hr day length measured after 48 hr by microimmersion protocol
Tetranychus evansi [3] = assay: Insecticidal activity against Tetranychus evansi R1 in clean French bean leaf assessed as mortality at 26 degC and 16 hr day length measured after 48 hr by microimmersion protocol
Tetranychus urticae [4] = assay: Insecticidal activity against Tetranychus urticae LS-VL (two-spotted spider mite)
Tetranychus evansi [5] = assay: Insecticidal activity against Tetranychus evansi TOR in clean French bean leaf assessed as mortality at 26 degC and 16 hr day length measured after 48 hr by microimmersion protocol
Tetranychus urticae [6] = assay: Insecticidal activity against Tetranychus urticae (two-spotted spider mite)

Cc1c(COC(=O)[C@@H]2[C@H](/C=C(\Cl)C(F)(F)F)C2(C)C)cccc1-c1ccccc1 (relative stereo) [BIFENTHRIN]
LC50 (Tetranychus evansi [1]): 135 µg/mL (≈ 0.318 mM) | LC50 (Tetranychus evansi [2]): 3560 µg/mL (≈ 8.42 mM) | LC50 (Tetranychus evansi [3]): 1860 µg/mL (≈ 4.39 mM) | LC50 (Tetranychus urticae [4]): 5.5 µg/mL (≈ 0.013 mM) | LC50 (Tetranychus evansi [5]): 92 µg/mL (≈ 0.218 mM)

CC[C@H](C)[C@H]1O[C@]2(C=C[C@@H]1C)C[C@@H]1C[C@@H](C/C=C(\C)[C@@H](O[C@H]3C[C@H](OC)[C@@H](O[C@H]4C[C@H](OC)[C@@H](O)[C@H](C)O4)[C@H](C)O3)[C@@H](C)/C=C/C=C3\CO[C@@H]4[C@H](O)C(C)=C[C@@H](C(=O)O1)[C@]34O)O2.CO[C@H]1C[C@H](O[C@H]2[C@H](C)O[C@@H](O[C@@H]3/C(C)=C/C[C@@H]4C[C@@H](C[C@]5(C=C[C@H](C)[C@@H](C(C)C)O5)O4)OC(=O)[C@@H]4C=C(C)[C@@H](O)[C@H]5OC/C(=C\C=C\[C@@H]3C)[C@]54O)C[C@@H]2OC)O[C@@H](C)[C@@H]1O [ABAMECTIN]
LC50 (Tetranychus evansi [1]): 0.23 µg/mL | LC50 (Tetranychus evansi [2]): 0.19 µg/mL | LC50 (Tetranychus evansi [3]): 0.18 µg/mL | LC50 (Tetranychus evansi [5]): 0.24 µg/mL

CCOP(=S)(OCC)Oc1nc(Cl)c(Cl)cc1Cl [CHLORPYRIFOS]
LC50 (Tetranychus evansi [1]): 3760 µg/mL (≈ 10.7 mM) | LC50 (Tetranychus evansi [2]): 4380 µg/mL (≈ 12.5 mM) | LC50 (Tetranychus evansi [3]): 3780 µg/mL (≈ 10.8 mM) | LC50 (Tetranychus urticae [6]): 4 µg/mL (≈ 0.0114 mM) | LC50 (Tetranychus evansi [5]): 4530 µg/mL (≈ 12.9 mM)
